This note sets out measurements from patent US8632789B2, “System and method for delivery of DNA-binding chemotherapy drugs using nanoparticles” (Syracuse University, priority 2010, dated 2014).

This series is described as follows: Thermal denaturation (melting) of DNA-capped AuNP by UV-vis at 260 nm as a function of DOX loading. The conditions noted are these: control studies, r=12; [DOX]=5.9 μM; [AuNP]=13.7 nM. It is filed as physicochemical.

Method: To probe the uptake of DOX via intercalation to 1ab-AuNP, we investigated the thermal denaturation of the 1ab strands by measuring increase in extinction at 260 nm using UV-visible spectroscopy (UV-vis).
We next utilized the 1ab- or 2ab-AuNP prepared above, with dsDNA-functionalization, for drug (DOX) loading. For each DOX binding and melting experiment, 1ab- or 2ab-AuNP were incubated for 40 min with DOX at specific ratios, r=[DOX]/[1ab/2ab]. In this study, we explored r=0-12, based on the number of 1ab per AuNP, as well as the number of binding sites at each 1ab. Next, each DOX-1ab-AuNP was analyzed via thermal denaturation melting experiments using temperature controlled UV-vis at Abs=260 nm and a heating rate of 1° C./min from 25° C. to 80° C. Each melting temperature was taken as the maximum of a peak-fitted first derivative plot of its corresponding melting curve (using PeakFit® Peak Separation and Analysis Software, V.4.12).
UV-visible Absorption (UV-vis): The UV-vis measurements were collected on a Varian Cary100 Bio UV-vis spectrophotometer between 200-900 nm. The instrument is equipped with an 8-cell automated holder with high precision Peltier heating controller.

Turning to `COc1cccc2c1C(=O)c1c(O)c3c(c(O)c1C2=O)C[C@@](O)(C(=O)CO)C[C@@H]3O[C@H]1C[C@H](N)[C@H](O)[C@H](C)O1` [DOX, doxorubicin], the “Cooperative melting in the temperature range of ~55-65° C.” value is on record as “not observed”.
